The record followed here is ChEMBL document CHEMBL2073986, “Impaired organic anion transport in kidney and choroid plexus of organic anion transporter 3 (Oat3 (Slc22a8)) knockout mice” (J Biol Chem, 2002).

For this series, the target named is T1, Organic anion transporter 3 (Mus musculus, UniProt O88909).
T1 sequence (O88909 whole entry): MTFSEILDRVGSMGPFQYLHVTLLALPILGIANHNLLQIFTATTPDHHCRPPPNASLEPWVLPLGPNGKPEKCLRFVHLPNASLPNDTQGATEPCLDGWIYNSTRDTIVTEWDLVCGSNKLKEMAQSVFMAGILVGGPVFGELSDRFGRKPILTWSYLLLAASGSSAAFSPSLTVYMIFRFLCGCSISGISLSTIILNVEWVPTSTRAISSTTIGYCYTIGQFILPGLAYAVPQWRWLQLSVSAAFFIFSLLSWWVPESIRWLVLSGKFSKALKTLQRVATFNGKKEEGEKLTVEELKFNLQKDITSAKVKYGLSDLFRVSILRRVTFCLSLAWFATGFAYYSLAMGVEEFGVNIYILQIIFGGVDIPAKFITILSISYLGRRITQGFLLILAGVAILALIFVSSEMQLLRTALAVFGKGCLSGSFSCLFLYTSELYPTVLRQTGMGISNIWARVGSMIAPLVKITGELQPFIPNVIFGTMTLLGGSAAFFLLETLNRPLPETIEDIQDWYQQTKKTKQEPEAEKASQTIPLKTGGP
In words: TP_TRANSPORTER: uptake in Xenopus laevis oocytes. The format is functional, cell-based. To be noted: oocyte.

Take `C[C@]12CC[C@@H]3c4ccc(OS(=O)(=O)O)cc4CC[C@H]3[C@@H]1CCC2=O` [ESTRONE SULFURIC ACID]: the Activity entry is “substrate [+]”. Consider `Nc1ccc(C(=O)NCC(=O)O)cc1` [AMINOHIPPURIC ACID], for which the Activity result was “substrate [+]”.
